Experimental findings from ChEMBL document CHEMBL1201862, “PubChem BioAssay data set” (2004) are described below.

SMILES strings stand for the structures.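 Method: 48-hour compound exposure of cells in 96-well plates, five concentrations, linear interpolation of endpoints. GI50 = concentration required for 50% inhibition of growth.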 The source made the active and inactive calls. Rule as the data show it: active = GI50 up to about 1.1 µM and inactive = higher.

Test systems include A498; A549; CAKI-1; DU-145; HCT-15; HOP-62; Hs-578T; M14; MCF7; MDA-N; NCI-H226; OVCAR-8; RXF 393; SK-OV-3; SW-620; TK-10; UO-31; IGROV-1; CCRF-CEM; HOP-92.
Common to all, as to assay: NCI-60 cell line screen, 48 h

Take `COc1ccc(N2C(=O)C3CC4=CC(=O)C[C@H]4[C@H]32)cc1` (stereo partly specified): the GI50 in the test with A498 is > 100 µM (inactive); in the test on A549 it was > 100 µM (inactive); with CAKI-1 it was 23.4 µM (inactive); in the test with DU-145, 75.9 µM (inactive); with HCT-15 it was 40.9 µM; with HOP-62 it was 44.9 µM (inactive). Also, the GI50 is > 100 µM (inactive) in the test with Hs-578T; > 100 µM (inactive) in the test with M14; 67.6 µM (inactive) in the test with MCF7; 18.5 µM (inactive) in the test with MDA-N; 42.8 µM (inactive) with NCI-H226; 49.4 µM (inactive) in the test with OVCAR-8. The GI50 with RXF 393 is 82 µM (inactive); with SK-OV-3, > 100 µM (inactive); with SW-620, 66.1 µM (inactive); with TK-10, 58.7 µM (inactive); in the test on UO-31, 37.2 µM (inactive).
For the compound `COc1ccc(N2C(=O)C3c4[nH]c5ccc(OCc6ccccc6)cc5c4C4CCC(C(C)(C)C)CC4C3C2=O)cc1` (stereo unspecified), the GI50 in the test on A498 is > 100 µM (inactive); in the test with A549, > 100 µM (inactive); in the test with CAKI-1, > 100 µM (inactive); with DU-145, > 100 µM (inactive); with HCT-15 it was above 100 µM; in the test with HOP-62, > 100 µM (inactive). Also, the GI50 in the test on Hs-578T is 54.2 µM (inactive); in the test on IGROV-1, > 100 µM (inactive); in the test on M14, 78.7 µM (inactive); with MCF7 it was 85.3 µM (inactive); in the test on MDA-N, > 100 µM (inactive); with NCI-H226, > 100 µM (inactive). Also, the GI50 was 46.3 µM (inactive) in the test on OVCAR-8; > 100 µM (inactive) in the test with RXF 393; > 100 µM (inactive) in the test with SK-OV-3; 94.6 µM (inactive) with SW-620; 54.5 µM (inactive) in the test on TK-10.
In the case of `COc1cc(/C=C2/CCS(=O)(=O)c3ccc(C)cc3C2=O)cc(OC)c1OC`, the GI50 was 5.78 µM (inactive) in the test with A498; 4.88 µM (inactive) in the test with A549; 4.65 µM (inactive) in the test on CAKI-1; 2.85 µM (inactive) with CCRF-CEM; 3.48 µM (inactive) in the test with DU-145; 4.59 µM with HCT-15. Moreover, the GI50 was 6.04 µM (inactive) in the test on HOP-62; 4.18 µM (inactive) with HOP-92; 4.73 µM (inactive) in the test with Hs-578T; 4.06 µM (inactive) in the test with IGROV-1; 5.33 µM (inactive) with M14; 4.19 µM (inactive) with MCF7. Besides, the GI50 in the test on MDA-N is 4.29 µM (inactive); in the test on NCI-H226 it was 6.34 µM (inactive); in the test with OVCAR-8, 2.7 µM (inactive); with SK-OV-3, 7.35 µM (inactive); in the test with SW-620, 4.76 µM (inactive); in the test on TK-10, 5.37 µM (inactive). In addition, in the test with UO-31, the GI50 is 5.75 µM (inactive).
As for `CN1CCN(c2ccc3nc(C4=C(O)C(=O)c5c(nc(CCl)n5C)C4=O)[nH]c3n2)CC1`, the GI50 in the test with A498 was 11.5 µM (inactive); in the test on A549, 30 µM (inactive); with CAKI-1 it was 13.5 µM (inactive); in the test on CCRF-CEM it was > 50 µM (inactive); with DU-145, 10.1 µM (inactive); with HCT-15, 38 µM. Also, the GI50 with HOP-62 is 9.51 µM (inactive); in the test on Hs-578T, 18.7 µM (inactive); in the test on IGROV-1, 8.38 µM (inactive); in the test with M14, 9.4 µM (inactive); in the test on MCF7, 8.89 µM (inactive); in the test on MDA-N, 9.75 µM (inactive). Besides, the GI50 in the test with NCI-H226 was 14.7 µM (inactive); in the test with OVCAR-8 it was 8.05 µM (inactive); in the test with RXF 393 it was 2.73 µM (inactive); with SK-OV-3 it was 10.5 µM (inactive); in the test with SW-620, 20 µM (inactive); in the test with UO-31 it was 2.47 µM (inactive).
Take `N#Cc1c(NC(=S)Nc2ccc(Cl)cc2)sc2c1CCN(N1CCc3c(sc(NC(=S)Nc4ccc(Cl)cc4)c3C#N)C1)C2`: the GI50 is 15.7 µM (inactive) with A498; 28.5 µM (inactive) in the test on A549; 63.8 µM (inactive) with CAKI-1; 33 µM (inactive) in the test on CCRF-CEM; 37.8 µM (inactive) in the test with DU-145; 24 µM with HCT-15. The GI50 in the test on HOP-62 is 16 µM (inactive); in the test with Hs-578T, 44.8 µM (inactive); in the test on IGROV-1, 16.1 µM (inactive); in the test on M14 it was 11 µM (inactive); with MCF7 it was 37.2 µM (inactive); in the test with MDA-N, 28.7 µM (inactive). In addition, the GI50 in the test on NCI-H226 was 16.1 µM (inactive); in the test on OVCAR-8, 29.3 µM (inactive); in the test with RXF 393 it was 18.3 µM (inactive); in the test with SK-OV-3, > 100 µM (inactive); with SW-620 it was 30.1 µM (inactive); in the test on TK-10, 41 µM (inactive). Also, in the test with UO-31, the GI50 is 14.9 µM (inactive).
Consider `c1ccc([P+](c2ccccc2)(c2ccccc2)C2c3ccccc3-c3ccccc32)cc1`, for which the GI50 in the test on A498 was 1.75 µM (inactive); with A549, 2.88 µM (inactive); in the test on CAKI-1, 3.46 µM (inactive); in the test on CCRF-CEM, 1.89 µM (inactive); in the test on DU-145, 2.87 µM (inactive); in the test on HCT-15 it was 3.01 µM. For the same compound, the GI50 with HOP-62 is 1.5 µM (inactive); in the test with Hs-578T, 2.21 µM (inactive); in the test on IGROV-1 it was 1.98 µM (inactive); in the test on M14, 3.14 µM (inactive); with MCF7, 2.25 µM (inactive); in the test with MDA-N, 0.895 µM (active). The GI50 was 1.95 µM (inactive) in the test on NCI-H226; 2.81 µM (inactive) in the test with OVCAR-8; 1.86 µM (inactive) in the test on RXF 393; 1.33 µM (inactive) in the test with SK-OV-3; 3.08 µM (inactive) with SW-620; 2.53 µM (inactive) in the test on TK-10. In addition, in the test with UO-31, the GI50 is 2.67 µM (inactive).
In the case of `CC1(C)CCc2c(cc3c(c2O)CCC(C)(C)O3)O1`, the GI50 with A498 is > 100 µM (inactive); in the test with A549 it was > 100 µM (inactive); with CAKI-1 it was > 100 µM (inactive); in the test with CCRF-CEM it was 67.8 µM (inactive); in the test with DU-145, > 100 µM (inactive); in the test on HCT-15, 64.7 µM. In addition, the GI50 in the test with HOP-62, with Hs-578T, in the test with IGROV-1, with M14, with MCF7 and in the test on MDA-N was > 100 µM (inactive) each time. The GI50 in the test on NCI-H226, in the test on OVCAR-8, in the test on SK-OV-3, with SW-620, in the test with TK-10 and in the test with UO-31 was > 100 µM (inactive) in each case.
With `COC1=C2C=[N+](C)C3C(=C2C=CC1OC)Cc1cc2c(cc13)OCO2` (stereo unspecified), the GI50 in the test with A498 is 43.5 µM (inactive); in the test with A549 it was 15.8 µM (inactive); in the test with CAKI-1, 15.8 µM (inactive); in the test on CCRF-CEM, 6.37 µM (inactive); with DU-145 it was 14.5 µM (inactive); in the test with HCT-15, 17.7 µM. Besides, the GI50 with HOP-62 is 13.9 µM (inactive); in the test on HOP-92, 22.7 µM (inactive); with Hs-578T, 13.7 µM (inactive); in the test with IGROV-1, > 10 µM (inactive); in the test on M14 it was 15.5 µM (inactive); with MCF7, 9.77 µM (inactive). For the same compound, the GI50 in the test with MDA-N was 11.4 µM (inactive); in the test on NCI-H226, 15.4 µM (inactive); in the test on OVCAR-8, 22 µM (inactive); in the test on SK-OV-3, 15.1 µM (inactive); in the test with SW-620, 26.2 µM (inactive); in the test on TK-10 it was 15.5 µM (inactive). Further, the GI50 in the test with UO-31 was 13.7 µM (inactive).
